Values of other authors, collected in article PMC9851200, “Multiparameter phenotypic screening for endogenous TFEB and TFE3 translocation identifies novel chemical series modulating lysosome function” (Autophagy, 2022).

Key:
Parameters in all cases: method as in original PKIS2 published data
[1] = biological target: T1, kinases (KINOMEscan panel) (Homo sapiens, UniProt O14920); conditions: cited from earlier work
T1 sequence (O14920 1-756): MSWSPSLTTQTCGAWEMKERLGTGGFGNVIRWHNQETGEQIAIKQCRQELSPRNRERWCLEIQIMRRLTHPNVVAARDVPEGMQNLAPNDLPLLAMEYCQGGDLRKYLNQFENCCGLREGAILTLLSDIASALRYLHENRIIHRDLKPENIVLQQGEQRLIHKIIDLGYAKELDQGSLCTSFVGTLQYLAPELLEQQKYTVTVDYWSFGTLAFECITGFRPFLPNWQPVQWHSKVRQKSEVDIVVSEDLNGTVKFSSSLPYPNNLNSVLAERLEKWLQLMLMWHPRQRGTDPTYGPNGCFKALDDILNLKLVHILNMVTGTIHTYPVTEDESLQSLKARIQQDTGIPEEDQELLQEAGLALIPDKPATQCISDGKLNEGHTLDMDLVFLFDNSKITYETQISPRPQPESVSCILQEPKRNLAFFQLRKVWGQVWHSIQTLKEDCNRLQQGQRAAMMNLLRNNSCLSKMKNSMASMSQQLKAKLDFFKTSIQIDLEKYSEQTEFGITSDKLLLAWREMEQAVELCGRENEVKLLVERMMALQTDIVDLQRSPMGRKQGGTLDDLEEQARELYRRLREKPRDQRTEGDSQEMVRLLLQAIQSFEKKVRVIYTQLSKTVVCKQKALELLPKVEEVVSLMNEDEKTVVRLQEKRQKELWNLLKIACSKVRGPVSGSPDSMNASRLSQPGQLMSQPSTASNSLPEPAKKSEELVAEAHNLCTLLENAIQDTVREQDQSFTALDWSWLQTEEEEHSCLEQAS

[2] = biological target: kinases (KINOMEscan panel) (Homo sapiens, UniProt O96013); conditions: PAK4; Published KINOMEscan; ref original PKIS2 published data; cited from earlier work
Sequence of kinases (KINOMEscan panel) (Homo sapiens, UniProt O96013) (O96013 whole entry): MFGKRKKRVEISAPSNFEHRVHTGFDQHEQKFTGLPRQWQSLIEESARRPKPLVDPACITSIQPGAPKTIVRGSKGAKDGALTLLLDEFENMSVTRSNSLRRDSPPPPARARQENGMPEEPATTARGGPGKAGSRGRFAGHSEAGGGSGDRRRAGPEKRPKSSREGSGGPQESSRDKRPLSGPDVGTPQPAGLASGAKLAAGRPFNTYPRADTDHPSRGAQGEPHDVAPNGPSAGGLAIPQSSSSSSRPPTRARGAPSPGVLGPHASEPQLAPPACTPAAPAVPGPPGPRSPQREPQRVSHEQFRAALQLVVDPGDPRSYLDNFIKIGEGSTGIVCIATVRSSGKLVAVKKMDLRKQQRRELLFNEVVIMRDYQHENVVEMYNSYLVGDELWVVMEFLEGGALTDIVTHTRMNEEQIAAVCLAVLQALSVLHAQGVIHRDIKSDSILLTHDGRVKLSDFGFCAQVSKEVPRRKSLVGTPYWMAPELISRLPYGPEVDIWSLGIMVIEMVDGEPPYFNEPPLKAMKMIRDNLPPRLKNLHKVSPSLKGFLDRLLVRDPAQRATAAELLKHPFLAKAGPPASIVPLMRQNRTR

[3] = biological target: T2, kinases (KINOMEscan panel) (Homo sapiens, UniProt P36888); conditions: Published KINOMEscan, ref original PKIS2 published data, cited from earlier work
T2 sequence (P36888 27-993): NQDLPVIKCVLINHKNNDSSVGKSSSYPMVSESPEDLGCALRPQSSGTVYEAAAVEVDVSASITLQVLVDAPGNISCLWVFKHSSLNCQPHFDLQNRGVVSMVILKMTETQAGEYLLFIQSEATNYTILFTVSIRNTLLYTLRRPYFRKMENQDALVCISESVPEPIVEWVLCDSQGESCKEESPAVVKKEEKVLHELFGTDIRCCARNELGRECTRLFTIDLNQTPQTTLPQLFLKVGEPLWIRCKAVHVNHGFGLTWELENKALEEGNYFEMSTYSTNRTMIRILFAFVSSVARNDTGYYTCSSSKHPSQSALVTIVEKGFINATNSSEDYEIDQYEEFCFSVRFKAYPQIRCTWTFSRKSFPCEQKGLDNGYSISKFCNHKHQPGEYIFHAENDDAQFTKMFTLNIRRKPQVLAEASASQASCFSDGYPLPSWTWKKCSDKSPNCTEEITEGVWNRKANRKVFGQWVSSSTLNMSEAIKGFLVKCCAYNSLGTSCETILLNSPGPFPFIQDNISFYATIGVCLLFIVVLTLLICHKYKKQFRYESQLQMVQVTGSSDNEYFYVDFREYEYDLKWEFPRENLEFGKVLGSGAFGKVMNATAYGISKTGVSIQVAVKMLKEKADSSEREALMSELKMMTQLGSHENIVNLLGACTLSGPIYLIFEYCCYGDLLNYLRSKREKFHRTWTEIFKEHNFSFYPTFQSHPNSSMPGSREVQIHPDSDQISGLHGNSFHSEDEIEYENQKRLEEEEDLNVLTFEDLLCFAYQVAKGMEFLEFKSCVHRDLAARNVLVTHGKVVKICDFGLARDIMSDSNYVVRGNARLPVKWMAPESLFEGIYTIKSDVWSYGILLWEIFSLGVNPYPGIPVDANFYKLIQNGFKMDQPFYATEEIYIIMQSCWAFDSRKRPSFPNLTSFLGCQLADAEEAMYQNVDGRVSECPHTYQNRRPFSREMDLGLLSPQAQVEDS

[4] = biological target: kinases (KINOMEscan panel) (Homo sapiens, UniProt P36894); conditions: kinase BMPR1A; Published KINOMEscan; ref original PKIS2 published data; cited from earlier work
Sequence of kinases (KINOMEscan panel) (Homo sapiens, UniProt P36894) (P36894 24-532): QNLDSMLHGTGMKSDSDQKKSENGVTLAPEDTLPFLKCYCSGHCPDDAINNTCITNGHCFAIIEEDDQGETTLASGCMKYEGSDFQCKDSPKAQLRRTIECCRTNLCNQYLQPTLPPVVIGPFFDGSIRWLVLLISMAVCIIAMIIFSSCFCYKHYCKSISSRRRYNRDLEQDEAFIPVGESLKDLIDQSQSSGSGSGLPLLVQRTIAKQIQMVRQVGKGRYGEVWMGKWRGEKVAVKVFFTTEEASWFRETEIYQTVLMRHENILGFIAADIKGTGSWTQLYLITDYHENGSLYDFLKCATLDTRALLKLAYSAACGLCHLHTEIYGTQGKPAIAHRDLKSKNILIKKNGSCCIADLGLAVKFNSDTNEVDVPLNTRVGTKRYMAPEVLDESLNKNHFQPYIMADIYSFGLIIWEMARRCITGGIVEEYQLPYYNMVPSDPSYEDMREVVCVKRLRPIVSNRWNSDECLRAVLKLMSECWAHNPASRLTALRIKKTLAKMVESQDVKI

[5] = biological target: T3, kinases (KINOMEscan panel) (Homo sapiens, UniProt Q13237); conditions: PRKG2; Published KINOMEscan; ref original PKIS2 published data; cited from earlier work
T3 sequence (Q13237 1-762): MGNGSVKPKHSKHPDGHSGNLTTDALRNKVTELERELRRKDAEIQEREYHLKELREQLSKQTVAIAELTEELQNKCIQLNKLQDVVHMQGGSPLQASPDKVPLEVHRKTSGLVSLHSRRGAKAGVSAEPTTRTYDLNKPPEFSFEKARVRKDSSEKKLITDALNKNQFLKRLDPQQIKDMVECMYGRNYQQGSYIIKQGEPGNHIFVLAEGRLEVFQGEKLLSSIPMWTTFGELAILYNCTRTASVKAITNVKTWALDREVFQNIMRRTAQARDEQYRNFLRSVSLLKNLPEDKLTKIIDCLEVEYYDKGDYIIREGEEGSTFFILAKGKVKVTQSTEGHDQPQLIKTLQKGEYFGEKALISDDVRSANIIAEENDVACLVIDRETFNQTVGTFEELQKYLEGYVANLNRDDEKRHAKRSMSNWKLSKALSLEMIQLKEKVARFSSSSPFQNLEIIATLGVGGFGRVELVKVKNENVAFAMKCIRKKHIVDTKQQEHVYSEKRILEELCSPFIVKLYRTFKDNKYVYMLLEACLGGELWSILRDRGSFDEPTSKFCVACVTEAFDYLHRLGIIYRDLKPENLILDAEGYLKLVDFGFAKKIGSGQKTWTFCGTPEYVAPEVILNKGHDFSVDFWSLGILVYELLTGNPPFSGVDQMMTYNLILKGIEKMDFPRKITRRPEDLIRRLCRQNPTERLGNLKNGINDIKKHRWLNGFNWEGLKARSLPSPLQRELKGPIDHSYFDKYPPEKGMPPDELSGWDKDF

[6] = biological target: kinases (KINOMEscan panel) (Homo sapiens, UniProt Q13464); conditions: ROCK1; Published KINOMEscan; ref original PKIS2 published data; cited from earlier work
Sequence of kinases (KINOMEscan panel) (Homo sapiens, UniProt Q13464) (Q13464 whole entry): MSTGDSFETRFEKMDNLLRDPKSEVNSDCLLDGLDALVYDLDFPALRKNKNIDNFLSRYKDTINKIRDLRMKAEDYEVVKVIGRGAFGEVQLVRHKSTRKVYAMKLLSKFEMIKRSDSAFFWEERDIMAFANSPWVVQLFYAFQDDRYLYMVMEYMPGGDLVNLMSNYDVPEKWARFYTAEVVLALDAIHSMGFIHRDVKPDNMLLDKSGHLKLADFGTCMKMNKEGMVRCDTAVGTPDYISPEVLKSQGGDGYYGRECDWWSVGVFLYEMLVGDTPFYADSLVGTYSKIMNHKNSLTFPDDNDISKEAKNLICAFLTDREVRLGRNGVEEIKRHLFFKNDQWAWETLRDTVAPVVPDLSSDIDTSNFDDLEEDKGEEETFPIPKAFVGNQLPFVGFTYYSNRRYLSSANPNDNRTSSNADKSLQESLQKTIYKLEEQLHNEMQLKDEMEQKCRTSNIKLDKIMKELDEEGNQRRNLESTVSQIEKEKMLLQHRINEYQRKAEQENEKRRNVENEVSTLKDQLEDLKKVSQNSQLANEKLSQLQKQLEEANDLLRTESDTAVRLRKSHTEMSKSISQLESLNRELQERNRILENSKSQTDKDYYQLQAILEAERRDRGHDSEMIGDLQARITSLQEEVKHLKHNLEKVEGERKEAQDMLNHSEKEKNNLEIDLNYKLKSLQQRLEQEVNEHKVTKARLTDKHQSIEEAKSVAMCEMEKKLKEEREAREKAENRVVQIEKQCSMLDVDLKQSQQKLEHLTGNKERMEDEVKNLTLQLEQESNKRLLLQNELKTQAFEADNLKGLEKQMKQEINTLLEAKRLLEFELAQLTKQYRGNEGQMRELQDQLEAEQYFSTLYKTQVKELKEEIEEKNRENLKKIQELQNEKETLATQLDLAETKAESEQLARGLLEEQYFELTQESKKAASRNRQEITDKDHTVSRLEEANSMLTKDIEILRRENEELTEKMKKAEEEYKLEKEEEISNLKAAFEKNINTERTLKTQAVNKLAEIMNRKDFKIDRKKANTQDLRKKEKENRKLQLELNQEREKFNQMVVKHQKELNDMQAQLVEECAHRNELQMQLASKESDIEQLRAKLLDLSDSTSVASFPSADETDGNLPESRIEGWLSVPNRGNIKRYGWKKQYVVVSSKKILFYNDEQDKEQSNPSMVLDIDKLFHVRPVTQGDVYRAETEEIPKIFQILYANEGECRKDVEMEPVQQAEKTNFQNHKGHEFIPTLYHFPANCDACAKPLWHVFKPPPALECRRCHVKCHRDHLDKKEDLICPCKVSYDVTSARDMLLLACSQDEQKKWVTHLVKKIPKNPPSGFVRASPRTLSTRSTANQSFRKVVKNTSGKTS

Cc1cccc(-c2nc(Nc3ccncc3)c3ccccc3n2)n1 [NK215]
0: KINOMEscan IKBKB/IKK-beta [1] | KINOMEscan PAK4 [2] | KINOMEscan FLT3 ([3]; FLT3) | KINOMEscan FLT3-autoinhibited ([3]; kinase FLT3-autoinhibited) | KINOMEscan BMPR1A [4] | KINOMEscan PRKG2 [5] | KINOMEscan ROCK1 [6]
